# Reference: paper PMC7156458, “Synthetic biology based construction of biological activity-related library of fungal decalin-containing diterpenoid pyrones” (Nature Communications, 2020)
# Biological target: Aβ42 (Homo sapiens, UniProt P05067)
# Assay: Th-T (thioflavin-T) assay of Aβ42 aggregation
# Assay type: biochemical
# Details: for Th-T fluorescence, mean of three wells: Aβ42 aggregation time course
# Chain of Aβ42 (P05067 672-713): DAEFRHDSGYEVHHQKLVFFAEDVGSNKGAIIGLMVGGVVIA
compound,measurement,setting,value
C=C1CC[C@@H]2[C@](C)(CC[C@H]3O[C@H](C=C(C)C)C[C@@]23C)[C@@H]1Cc1c(OC)oc(CO)c(C)c1=O [Compound 20],delay of the nucleation phase,,no delay
same,elongation of Aβ42,,partly suppressed the elongation of Aβ42
same,first Th-T assay result,"Aβ42 (10 μM) ± DPPs (20 μM), room temperature",slightly suppressed
same,"Th-T fluorescence, mean of three wells",reading M117,4.214
same,"Th-T fluorescence, mean of three wells",reading M118,4.194
same,"Th-T fluorescence, mean of three wells",reading M119,4.178
same,"Th-T fluorescence, mean of three wells",reading M120,4.1845
same,"Th-T fluorescence, mean of three wells",reading M121,4.166
same,"Th-T fluorescence, mean of three wells",reading M122,4.139
same,"Th-T fluorescence, mean of three wells",reading M123,4.16
same,"Th-T fluorescence, mean of three wells",reading M124,4.194
same,"Th-T fluorescence, mean of three wells",reading M125,4.155
same,"Th-T fluorescence, mean of three wells",reading M126,4.13
same,"Th-T fluorescence, mean of three wells",reading M127,4.172
same,"Th-T fluorescence, mean of three wells",reading M128,4.137
same,"Th-T fluorescence, mean of three wells",reading M129,4.1254
same,"Th-T fluorescence, mean of three wells",reading M130,4.128
same,"Th-T fluorescence, mean of three wells (Fig. 7a)","column suffix _10, measurement M19",3.317
same,"Th-T fluorescence, mean of three wells (Fig. 7a)","column suffix _10, measurement M20",3.391
same,"Th-T fluorescence, mean of three wells (Fig. 7a)","column suffix _10, measurement M21",3.434
same,"Th-T fluorescence, mean of three wells (Fig. 7a)","column suffix _10, measurement M22",3.448
same,"Th-T fluorescence, mean of three wells (Fig. 7a)","column suffix _10, measurement M23",3.464
same,"Th-T fluorescence, mean of three wells (Fig. 7a)","column suffix _10, measurement M24",3.465
same,"Th-T fluorescence, mean of three wells (Fig. 7a)","column suffix _10, measurement M25",3.454
same,"Th-T fluorescence, mean of three wells (Fig. 7a)","column suffix _10, measurement M26",3.452
same,"Th-T fluorescence, mean of three wells (Fig. 7a)","column suffix _10, measurement M27",3.468
same,"Th-T fluorescence, mean of three wells (Fig. 7a)","column suffix _10, measurement M28",3.469
same,"Th-T fluorescence, mean of three wells (Fig. 7a)","column suffix _10, measurement M29",3.45
same,"Th-T assay signal, mean of three wells (Fig. 7a)","column suffix _10, reading M1",0.2292
same,"Th-T assay signal, mean of three wells (Fig. 7a)","column suffix _10, reading M2",0.2545
same,"Th-T assay signal, mean of three wells (Fig. 7a)","column suffix _10, reading M3",0.2762
same,"Th-T assay signal, mean of three wells (Fig. 7a)","column suffix _10, reading M4",0.324
same,"Th-T assay signal, mean of three wells (Fig. 7a)","column suffix _10, reading M5",0.3535
same,"Th-T assay signal, mean of three wells (Fig. 7a)","column suffix _10, reading M6",0.4731
same,"Th-T assay signal, mean of three wells (Fig. 7a)","column suffix _10, reading M7",0.5173
same,"Th-T assay signal, mean of three wells (Fig. 7a)","column suffix _10, reading M8",0.5644
same,"Th-T assay signal, mean of three wells (Fig. 7a)","column suffix _10, reading M9",0.6382
same,"Th-T assay signal, mean of three wells (Fig. 7a)","column suffix _10, reading M10",0.6392
same,"Th-T assay signal, mean of three wells (Fig. 7a)","column suffix _10, reading M11",0.7204
same,"Th-T assay signal, mean of three wells (Fig. 7a)","column suffix _10, reading M12",0.8506
same,"Th-T assay signal, mean of three wells (Fig. 7a)","column suffix _10, reading M13",1.108
same,"Th-T assay signal, mean of three wells (Fig. 7a)","column suffix _10, reading M14",1.585
same,"Th-T assay signal, mean of three wells (Fig. 7a)","column suffix _10, reading M15",2.1202
same,"Th-T assay signal, mean of three wells (Fig. 7a)","column suffix _10, reading M16",2.635
same,"Th-T assay signal, mean of three wells (Fig. 7a)","column suffix _10, reading M17",2.976
same,"Th-T assay signal, mean of three wells (Fig. 7a)","column suffix _10, reading M18",3.206
same,"Fig. 7a Th-T reading, mean of three wells","column suffix _10, reading M85",3.354
same,"Fig. 7a Th-T reading, mean of three wells","column suffix _10, reading M86",3.35
same,"Fig. 7a Th-T reading, mean of three wells","column suffix _10, reading M87",3.36
same,"Fig. 7a Th-T reading, mean of three wells","column suffix _10, reading M88",3.344
same,"Fig. 7a Th-T reading, mean of three wells","column suffix _10, reading M89",3.359
same,"Fig. 7a Th-T reading, mean of three wells","column suffix _10, reading M90",3.344
same,"Fig. 7a Th-T reading, mean of three wells","column suffix _10, reading M91",3.334
same,"Fig. 7a Th-T reading, mean of three wells","column suffix _10, reading M92",3.329
same,"Fig. 7a Th-T reading, mean of three wells","column suffix _10, reading M93",3.316
same,"Fig. 7a Th-T reading, mean of three wells","column suffix _10, reading M94",3.328
same,"Fig. 7a Th-T reading, mean of three wells","column suffix _10, reading M95",3.309
same,"Fig. 7a Th-T reading, mean of three wells","column suffix _10, reading M96",3.312
same,"Fig. 7a Th-T reading, mean of three wells","column suffix _10, reading M97",3.295
same,"Fig. 7a Th-T reading, mean of three wells","column suffix _10, reading M98",3.318
same,"Fig. 7a Th-T reading, mean of three wells","column suffix _10, reading M99",3.3
same,"Fig. 7a Th-T reading, mean of three wells","column suffix _10, reading M100",3.294
same,"Fig. 7a Th-T reading, mean of three wells","column suffix _10, reading M101",3.313
same,"Fig. 7a Th-T reading, mean of three wells","column suffix _10, reading M102",3.28
same,"Fig. 7a Th-T reading, mean of three wells","column suffix _10, reading M103",3.294
same,"Fig. 7a Th-T reading, mean of three wells","column suffix _10, reading M104",3.29
same,"Fig. 7a Th-T reading, mean of three wells","column suffix _10, reading M105",3.266
same,"Fig. 7a Th-T reading, mean of three wells","column suffix _10, reading M106",3.268
same,"Th-T fluorescence, mean of three wells (Fig. 7a)","column suffix _20, measurement M19",3.146
same,"Th-T fluorescence, mean of three wells (Fig. 7a)","column suffix _20, measurement M20",3.22
same,"Th-T fluorescence, mean of three wells (Fig. 7a)","column suffix _20, measurement M21",3.265
same,"Th-T fluorescence, mean of three wells (Fig. 7a)","column suffix _20, measurement M22",3.294
same,"Th-T fluorescence, mean of three wells (Fig. 7a)","column suffix _20, measurement M23",3.285
same,"Th-T fluorescence, mean of three wells (Fig. 7a)","column suffix _20, measurement M24",3.3066
same,"Th-T fluorescence, mean of three wells (Fig. 7a)","column suffix _20, measurement M25",3.328
same,"Th-T fluorescence, mean of three wells (Fig. 7a)","column suffix _20, measurement M26",3.367
same,"Th-T fluorescence, mean of three wells (Fig. 7a)","column suffix _20, measurement M27",3.353
same,"Th-T fluorescence, mean of three wells (Fig. 7a)","column suffix _20, measurement M28",3.346
same,"Th-T fluorescence, mean of three wells (Fig. 7a)","column suffix _20, measurement M29",3.34
same,"Th-T fluorescence, mean of three wells (Fig. 7a)","column suffix _20, measurement M30",3.361
same,"Th-T assay signal, mean of three wells (Fig. 7a)","column suffix _20, reading M1",0.2139
same,"Th-T assay signal, mean of three wells (Fig. 7a)","column suffix _20, reading M2",0.2391
same,"Th-T assay signal, mean of three wells (Fig. 7a)","column suffix _20, reading M3",0.2688
same,"Th-T assay signal, mean of three wells (Fig. 7a)","column suffix _20, reading M4",0.2877
same,"Th-T assay signal, mean of three wells (Fig. 7a)","column suffix _20, reading M5",0.33
same,"Th-T assay signal, mean of three wells (Fig. 7a)","column suffix _20, reading M6",0.4061
same,"Th-T assay signal, mean of three wells (Fig. 7a)","column suffix _20, reading M7",0.4716
same,"Th-T assay signal, mean of three wells (Fig. 7a)","column suffix _20, reading M8",0.5038
same,"Th-T assay signal, mean of three wells (Fig. 7a)","column suffix _20, reading M9",0.5302
same,"Th-T assay signal, mean of three wells (Fig. 7a)","column suffix _20, reading M10",0.5653
same,"Th-T assay signal, mean of three wells (Fig. 7a)","column suffix _20, reading M11",0.6147
same,"Th-T assay signal, mean of three wells (Fig. 7a)","column suffix _20, reading M12",0.7691
same,"Th-T assay signal, mean of three wells (Fig. 7a)","column suffix _20, reading M13",1.152
same,"Th-T assay signal, mean of three wells (Fig. 7a)","column suffix _20, reading M14",1.832
same,"Th-T assay signal, mean of three wells (Fig. 7a)","column suffix _20, reading M15",2.436
same,"Th-T assay signal, mean of three wells (Fig. 7a)","column suffix _20, reading M16",2.813
same,"Th-T assay signal, mean of three wells (Fig. 7a)","column suffix _20, reading M17",2.993
same,"Th-T assay signal, mean of three wells (Fig. 7a)","column suffix _20, reading M18",3.081
same,"Fig. 7a Th-T reading, mean of three wells","column suffix _20, reading M85",3.286
same,"Fig. 7a Th-T reading, mean of three wells","column suffix _20, reading M86",3.29
same,"Fig. 7a Th-T reading, mean of three wells","column suffix _20, reading M87",3.2956
same,"Fig. 7a Th-T reading, mean of three wells","column suffix _20, reading M88",3.332
same,"Fig. 7a Th-T reading, mean of three wells","column suffix _20, reading M89",3.367
same,"Fig. 7a Th-T reading, mean of three wells","column suffix _20, reading M90",3.341
same,"Fig. 7a Th-T reading, mean of three wells","column suffix _20, reading M91",3.299
same,"Fig. 7a Th-T reading, mean of three wells","column suffix _20, reading M92",3.303
same,"Fig. 7a Th-T reading, mean of three wells","column suffix _20, reading M93",3.313
same,"Fig. 7a Th-T reading, mean of three wells","column suffix _20, reading M94",3.332
same,"Fig. 7a Th-T reading, mean of three wells","column suffix _20, reading M95",3.309
same,"Fig. 7a Th-T reading, mean of three wells","column suffix _20, reading M96",3.268
same,"Fig. 7a Th-T reading, mean of three wells","column suffix _20, reading M97",3.26
same,"Fig. 7a Th-T reading, mean of three wells","column suffix _20, reading M98",3.269
same,"Fig. 7a Th-T reading, mean of three wells","column suffix _20, reading M99",3.3
same,"Fig. 7a Th-T reading, mean of three wells","column suffix _20, reading M100",3.292
